Data reported in a melting point compilation (Tetko et al.; mined from patent text by program, amines drawn as free bases though some values may be those of a salt).

Row | SMILES | melting point
1 | Cc1oc2cc(O)ccc2c(=O)c1C(=O)O | 286 to 287 °C
2 | O=C(C=Cc1ccc(Cl)cc1Cl)c1ccccc1[N+](=O)[O-] | 130 to 132 °C
3 | COc1cn(C(C)C)c(=O)o1 | 108 to 110 °C
4 | N=C(NO)c1ccc(-c2ccc(O)c(-c3nc4cc(C(=N)NO)ccc4[nH]3)c2)cc1 | 319 to 322 °C
5 | CCCC(c1ccc(C(N)=O)cc1)n1ccnc1 (stereo not drawn) | 132 °C
6 | Cc1cc(Cl)ccc1Cn1nc(C=O)c2ccccc21 | 107 to 109 °C
7 | COC(=O)c1ccc(OCc2ccc3ccccc3n2)cc1C1(c2ccccc2)CC2CCC1C2 (stereo not drawn) | 106 to 107 °C
8 | CCOC(=O)C1=C(N)N=C(SC)C(C(=O)OCC)C1c1cccc([N+](=O)[O-])c1 (stereo not drawn) | 144 °C
9 | CCCc1[nH]c2cc(C(=O)OC)ccc2c1C(=O)COC | 127 to 129 °C
10 | N#CC1(C2(O)CCCCC2)Cc2cc3c(cc21)NCC3 (stereo not drawn) | 168 to 170 °C
11 | Cc1ccc(C(=O)NCc2cc(C(C)(C)O)cc(C(F)(F)F)c2)cc1Nc1nccc(-c2cccnc2)n1 | 253 to 258 °C
12 | Cc1oc(-c2ccc3ccccc3c2)nc1COc1ccc(CCCCCOS(C)(=O)=O)cc1 | 132 to 133 °C
13 | CCn1cnc2c(Nc3cccc(C#N)c3)nc(Cl)nc21 | 189 °C
14 | CC(C)N(CCC(CCN(C)C)(C(N)=O)c1ccc(F)cc1)C(C)C (stereo not drawn) | 78 to 80 °C
15 | Clc1cnn(CCCCN2CCN(c3ccccc3)CC2)c1 | 58 to 61 °C
16 | O=C(O)c1cc2c(c(C(=O)O)c1)NCCS2 | > 300 °C
17 | N#Cc1c(Cl)ccc(F)c1Cl | 69 to 71 °C
18 | [N-]=[N+]=NC1CC(n2cnc3c(NC4CC4c4ccccc4)nc(N)nc32)OC1CO (stereo not drawn) | 65 to 70 °C
19 | O=S(=O)(NCCCCOc1ccc(-n2ccnc2)cc1)c1ccccc1 | 110 to 111 °C
20 | CN(C)C(=O)[C@@H]1C[C@H](C(=O)OC(C)(C)C)N[C@@H]1c1ccccc1 (racemic) | 97 °C
21 | CC(C)(CCc1nnn[nH]1)c1ccc(C(=O)Nc2cn3cc(-n4ccnc4)ccc3n2)cc1 | 266 to 267 °C
22 | COc1ccc(C(=O)Nc2cc([N+](=O)[O-])ccc2Br)cc1OC | 183 to 184 °C
23 | CCCNC1=NC(c2cccc(-c3cncnc3)c2)(c2ccc(OCCC)c(C)c2)C(=O)N1C (stereo not drawn) | 64 to 66 °C

Row | SMILES | melting point
24 | Cn1nc(-c2c(F)cccc2Cl)nc1COc1ccc(C(C)(C)C)cc1 | 84 to 86 °C
25 | O=C(c1ccc(Cc2c(Cl)cc([N+](=O)[O-])cc2Cl)cc1)c1cnc(Cl)c(Cl)c1 | 129 to 131 °C
26 | CCCCCCC/C=C/C(=O)NCCC(C)C | 28 to 31 °C
27 | O=C(c1cccnc1)N1CC2CCC(C1)O2 | 48 to 49.5 °C
28 | O=[N+]([O-])c1ccc(OCc2ccccc2)cc1Cl | 82 to 84.5 °C
29 | CC1CC1n1cc(C(=O)O)c(=O)c2cc(F)c(N3CCNCC3)cc21 (stereo not drawn) | 110 to 120 °C
30 | COc1ccc(-c2ccc(C(C)=O)cc2)cc1C=O | 136 to 138 °C
31 | O=C1CC(c2cccc(-n3cncn3)c2)=Nc2ccc(C#Cc3ccc(F)cc3)cc2N1 | 217 to 218 °C
32 | Cc1ccc2c(c1)N=C(N1CCN(C)CC1)c1cccc3ccn-2c13 | 202 to 204 °C
33 | OCCCc1nc(-c2ccc(Cl)cc2)co1 | 41 to 42 °C
34 | CCCCCCCCCCCCn1nnc(C(C(=O)Nc2c(C(C)C)cccc2C(C)C)(c2ccccc2)c2ccccc2)n1 | 154 to 156 °C
35 | CCC1c2cccn2-c2cc(Cl)ccc2N1S(=O)(=O)c1ccc(O)cc1 (stereo not drawn) | 192 to 194 °C
36 | CC(C)(C)c1ccc(COc2ccc(CSc3ccc(OCC(=O)O)c4c3CCC4)cc2)cc1 | 152 to 153 °C
37 | Nc1cc(-c2noc(-c3cnn4c(C(F)(F)F)cc(-c5ccc(C(F)(F)F)cc5)nc34)n2)ccn1 | 277 °C
38 | Cn1c(COc2ccc(C=O)cc2)nc2ccc(Sc3cc(C(C)(C)C)c(O)c(C(C)(C)C)c3)cc21 | 219 to 221 °C
39 | C=CCN(C)c1nc(Cc2ccc(OC)c(OC)c2)nc2sc(C#N)c(C)c12 | 98 to 100 °C
40 | COc1cc(OC)c(-c2cc3ccccc3[nH]2)cc1C=CC(=O)c1ccc(S(=O)(=O)NCCCn2ccnc2)cc1 | 197 to 200 °C
41 | CN1CC(CN2CCN(c3ccccc3)CC2)OC1=O (stereo not drawn) | 110 to 112 °C
42 | COC(=O)CCc1ccc(N2CCN(CCCCC#N)C2=O)cc1 | 99 to 101 °C
43 | Cc1cccc(C2(O)CCN(C)CC2)c1 | 86 to 90 °C
44 | O=C(Nc1cc(-c2nc(-c3ccccc3)c[nH]2)ccn1)c1ccccc1 | 265 to 267 °C
45 | COc1ccc2c(c1)sc1ncc(CO)n12 | 202 to 204 °C
46 | Cc1oc(-c2ccccc2)nc1COc1ccc(COc2nn(Cc3ccccc3)cc2CCC(=O)O)cc1 | 125 to 126 °C

Next, values leading:

Row | melting point | SMILES
47 | 171 to 173 °C | O=C(Cc1cccs1)NCc1cccc2c1C(=O)N(C1CCC(=O)NC1=O)C2=O (stereo not drawn)
48 | 70 to 75 °C | CNC(=O)Nc1cc(-c2ccc(S(C)(=O)=O)cc2)c(-c2ccc(F)cc2)s1
49 | 180 to 182 °C | OCCc1c2ccccc2c(Br)c2ccccc12
50 | 183 to 184 °C | CC(C)(C)OC(=O)N1CCN(c2cccc3ccc(Nc4ncccc4N)cc23)CC1
51 | 180 to 182 °C | N=C(N)NCc1ccc(OCCC2Oc3ccccc3N(Cc3ccccc3Cl)C2=O)cc1 (stereo not drawn)
52 | 178 to 180 °C | C[C@]1(N2C(=O)c3cccc(OCc4ccc(CN5CCOCC5)cc4)c3C2=O)CCC(=O)NC1=O
53 | > 300 °C | Cn1ncc(/C=C/C(=O)Nc2ccc3[nH]c(=O)oc3c2)c1-c1ccc(F)cc1
54 | 84 to 89 °C | O=C(O)CCCCCCc1ccc2ccccc2c1[N+](=O)[O-]
55 | 115 to 118 °C | CCCCCC(=O)Nc1ccc(NNC(=O)N(C)c2cccc3c2C(=O)N(C)C3=O)cc1
56 | 106 to 109 °C | O=C(CC(Cc1cccc2ccccc12)C(=O)N[C@@H](Cc1c[nH]cn1)C(=O)N[C@H](CO)Cc1ccccc1)NCCc1ccccc1 (stereo partly drawn)
57 | 134 to 135 °C | CCCc1ccc(NC(=O)c2ccccc2NCc2ccncc2)cc1C(F)(F)F
58 | 165 °C | CCc1cn([C@H]2C[C@H](OC(C)=O)[C@@H](/C=C/C(=O)Cc3c(Cl)cccc3Cl)O2)c(=O)[nH]c1=O
59 | 131 to 133 °C | O=C(O)COc1ccc(SCc2cc(-c3ccc(Cl)cc3)on2)c2c1CCCO2
60 | 74 to 76 °C | Clc1cc(Cl)c2c(c1)CCC(c1ccccc1)O2 (stereo not drawn)
61 | 307 to 309 °C | Cc1nc2c(Br)cccc2c(=O)n1C1CCC(=O)NC1=O (stereo not drawn)
62 | 256 °C | CCCC1=C(C#N)C(c2ccccc2Cl)c2c(n[nH]c2-c2cccs2)N1 (stereo not drawn)
63 | 143 to 144 °C | N#CCCNC(=O)c1cccc(-c2cccc(Oc3ccc(Cl)cc3)n2)c1
64 | 240 °C | CC(C)(C)c1cc(Cl)c2c(c1)-c1ccccc1P(=O)(O)O2
65 | 137 to 141 °C | O=C1N(CC2CCCO2)c2cccc(Br)c2C12COc1cc3c(cc12)CCO3 (stereo not drawn)
66 | 154 to 155 °C | COCC(=O)Nc1c(C(=O)c2cccc(Cl)c2)[nH]c2cc(Cl)ccc12
67 | 72 to 74 °C | CCOc1cc([C@@H](CCN(C=O)OC(C)=O)N2Cc3cccc(NC(=O)C(C)C)c3C2=O)ccc1OC
68 | 57 to 58 °C | COc1ccccc1CC(=N)N1CCC(=O)C(C(c2ccccc2)c2ccccc2)C1 (stereo not drawn)
